Experimental data from ChEMBL document CHEMBL5357007, “Withanolides from Physalis angulata var. villosa and the Relative Configurational Revision of Some Known Analogs” (J Nat Prod, 2024).

Assays:
Type in all cases: functional, cell-based
[1] = tested on: MDA-MB-231; test: Cytotoxicity against human MDA-MB-231 cells assessed as inhibition of cell growth incubated for 72 hrs by CCK-8 assay; settings: MDA-MB-231, 72 h
[2] = tested on: A549; test: Cytotoxicity against human A549 cells assessed as inhibition of cell growth incubated for 72 hrs by CCK-8 assay; settings: A549, 72 h
[3] = tested on: HCT-116; test: Cytotoxicity against human HCT-116 cells assessed as inhibition of cell growth incubated for 72 hrs by CCK-8 assay; settings: HCT-116, 72 h

SMILES | IC50 [1] | IC50 [2] | IC50 [3]
CCO[C@H]1CC(=O)[C@]2(C)[C@H]3CC[C@]4(C)C([C@H](C)[C@H]5CC(C)=C(C)C(=O)O5)=C[C@H](OC(C)=O)[C@]4(O)[C@@H]3C[C@H]3O[C@]32[C@H]1O | > 10 µM | > 10 µM | > 10 µM
CO[C@H]1C=C([C@H](C)[C@H]2CC(C)=C(C)C(=O)O2)[C@@]2(C)CC[C@H]3[C@@H](C[C@@H](O)[C@@]4(Cl)CC=CC(=O)[C@]34C)[C@@]12O | 9.4 µM | > 10 µM | 8.8 µM
CCO[C@H]1CC(=O)[C@]2(C)[C@H]3CC[C@@]4(C)[C@](O)([C@@H](OC(C)=O)C[C@@]4(O)[C@H](C)[C@H]4CC(C)=C(C)C(=O)O4)[C@@H]3C[C@H]3O[C@]32C1 | > 10 µM | > 10 µM | > 10 µM
CCO[C@H]1CC(=O)[C@]2(C)[C@H]3CC[C@]4(C)[C@@H]([C@H](C)[C@H]5CC(C)=C(C)C(=O)O5)C[C@H](O)[C@]4(O)[C@@H]3C[C@H]3O[C@]32[C@H]1O | > 10 µM | > 10 µM | > 10 µM
CC(=O)O[C@H]1[C@H](O)[C@](O)([C@H](C)[C@H]2CC(C)=C(C)C(=O)O2)[C@@]2(C)CC[C@H]3[C@@H](C[C@H]4O[C@]45[C@@H](O)C=CC(=O)[C@]35C)[C@@]12O | 9.1 µM | > 10 µM | 7.2 µM
CC(=O)O[C@H]1C[C@H]([C@H](C)[C@@H]2OC(=O)C(C)=C(C)[C@@H]2O)[C@@]2(C)CC[C@H]3[C@@H](C[C@H]4O[C@]45[C@@H](O)C=CC(=O)[C@]35C)[C@@]12O | > 10 µM | 9.7 µM | 8.5 µM
CC(=O)O[C@H]1C=C([C@H](C)[C@H]2CC(C)=C(C)C(=O)O2)[C@@]2(C)CC[C@H]3[C@@H](C[C@H]4O[C@]45C[C@@H](O)CC(=O)[C@]35C)[C@@]12O | > 10 µM | > 10 µM | > 10 µM
CCO[C@H]1CC(=O)[C@]2(C)[C@H]3CC[C@]4(C)C([C@H](C)[C@H]5CC(C)=C(C)C(=O)O5)=C[C@H](OC(C)=O)[C@]4(O)[C@@H]3C[C@H]3O[C@]32C1 | > 10 µM | > 10 µM | > 10 µM
CC(=O)O[C@H]1C=C([C@H](C)[C@H]2CC(C)=C(C)C(=O)O2)[C@@]2(C)CC[C@H]3[C@@H](CC(=O)C4CC=CC(=O)[C@@]43C)[C@@]12O (stereo not given in full) | > 10 µM | > 10 µM | 9.2 µM
CC(=O)O[C@H]1[C@@H]2O[C@]2([C@@H](C)[C@H]2CC(C)=C(C)C(=O)O2)[C@@]2(C)CC[C@H]3[C@@H](C[C@H](Cl)[C@]4(O)CC=CC(=O)[C@]34C)[C@@]12O | > 10 µM | > 10 µM | > 10 µM
CC(=O)O[C@H]1C[C@H]([C@H](C)[C@H]2CC(C)=C(C)C(=O)O2)[C@@]2(C)CCC3[C@@H](C[C@@H](O)C4=CC=CC(=O)[C@@]43C)[C@@]12O (stereo not given in full) | > 10 µM | > 10 µM | > 10 µM
CC(=O)O[C@H]1C=C([C@H](C)[C@H]2CC(C)=C(C)C(=O)O2)[C@@]2(C)[C@H](O)C[C@H]3[C@@H](C[C@@H](O)[C@@]4(O)CC=CC(=O)[C@]34C)[C@@]12O | > 10 µM | > 10 µM | > 10 µM
CC(=O)O[C@H]1C[C@](O)([C@H](C)[C@H]2CC(C)=C(C)C(=O)O2)[C@@]2(C)CC[C@H]3[C@@H](C[C@H]4O[C@]45[C@@H](O)C=CC(=O)[C@]35C)[C@@]12O | 4.5 µM | 5.9 µM | 1.8 µM
CC1=C(C)C(=O)O[C@@H]([C@@H](C)C2=C[C@H](O)[C@]3(O)[C@@H]4C[C@H]5O[C@]56[C@@H](O)CCC(=O)[C@]6(C)[C@H]4CC[C@]23C)C1 | > 10 µM | > 10 µM | > 10 µM
CCO[C@H]1CC(=O)[C@]2(C)[C@H]3CC[C@@]4(C)[C@@](O)([C@@H]3C[C@H]3O[C@]32[C@H]1O)[C@@H](OC(C)=O)[C@@H]1O[C@@]14[C@H](C)[C@H]1CC(C)=C(C)C(=O)O1 | > 10 µM | > 10 µM | > 10 µM
